Patent US20250382556A1, “MODULATION OF THE BRANCHED-CHAIN METABOLITE CONTENT OF FRUITS AND VEGETABLES” (BOARD OF TRUSTEES OF MICHIGAN STATE UNIVERSITY, priority 2024, published 2025)

Key:
[1] = tested on: ‘Red Delicious’ apple fruit; assay: Physiology of MCP-treated stored apple fruit (respiration, firmness); type: in vivo, Malus x domestica Borkh.; details: Red Delicious after five months storage in air at 0° C. and warming
Protocol: ‘Gala’, ‘Empire’, ‘Jonagold’, and ‘Red Delicious’ apple fruit (Malus x domestica Borkh.) were harvested from local orchards at commercial maturity and transported to the laboratory during the 2022 and 2023 seasons. As determined by previously described methods, the fruit were at the developmental onset of ripening with no subjectively discernible aroma. ‘Gala’ and ‘Empire’ fruits began treatment immediately after arrival in the laboratory. ‘Jonagold’ fruit were held in air at 0° C. for two days before transfer to controlled atmosphere (CA) storage (1.5 O2, 3% CO2, 0° C.) and then kept in CA for twelve days to suppress ethylene action before the initiation of inhibitor treatment. ‘Red Delicious’ fruit were treated with 50 nL·^−1 1-methylcyclopropene (MCP) for 24 h at 0° C. The MCP was evolved from a commercial MCP product (EASYFRESH®, Fine Americas) in sealed chambers two days after harvest as previously described. The fruit were then stored in air at 0° C. for five months and were warmed to 22° C. for 24 h before sulfonylurea treatment. This low-dosage MCP treatment had very mild effects on physiology. […] Based on the internal ethylene concentration (˜100 μL·L^−1) and the total ester production (elevated and trending upwards), the fruit were considered to be of an advanced stage of ripeness, but not senescent. […]

banana pulp [2] = assay: Free amino acid content of banana pulp via UPLC-MS/MS after AHAS inhibitor treatment; design: species or system Musa spp. AAA group, Cavendish subgroup, cv. Valery; key to free asparagine content compared to control / free glutamine content compared to control / free histidine content compared to control / free isoleucine content compared to control / free lysine content compared to control / free methionine content compared to control / free phenylalanine content compared to control / free threonine content compared to control / free tryptophan content compared to control / free arginine content compared to control: —: Dash indicates no significant difference between treatments
Protocol: (§1) In the first method, mature green ‘Valery’ fruit were cut into ˜1 cm^2 sections, 2-mm thick, from transverse sections of fruit not treated with ethylene. Care was taken such that one edge of the square was from the edge of the pulp, thus representing an undisturbed or ‘live edge’ of cells that should be able to maintain unhindered gas exchange. Pulp sections were prepared in vials as above described for apples. Treatment solution: 0.5 mM halosulfuron-methyl (methyl 3-chloro-5-(4,6-dimethoxypyrimidin-2-ylcarbamoylsulfamoyl)-1-methylpyrazole-4-carboxylate, made from SANDEA®, Gowan Co. 75% w/w active ingredient; 0.1% Tween 20). Ripening was induced by injection of 1 μL ethylene into the vial's 20-mL headspace. The following day the vials were vented for 15 min before having the Mininert valve (Valco Instruments Co. Inc.) replaced on the vial but with a needle inserted to allow for gas diffusion. Daily for the following two days, 20 μL of freshly made inhibitor or water solution was added onto the pulp. The needles were again kept in the valves to maintain gas diffusion. The next day, and thus four days since initially preparing the vials, the needles were removed, and the vials were sealed and incubated for at least 1 hour at room temperature (22° C.) before headspace sampling.
After volatile analysis, apple peel disks, collected peel of flowering quince, and ‘Valery’ pulp section samples were held at −80° C. for further amino acid analysis.
Frozen samples were ground to a powder in liquid nitrogen-chilled mortar and pestles. About 500 mg of tissue was vortexed for 10 sec in 2 mL of room temperature (22° C.) extraction solution (1:1:1 water:acetonitrile:ethanol, v/v/v) spiked with 2 nmoles of U-^13C,^15N labeled amino acids (MilliporeSigma) as internal standards and heated for 15 min in a 65° C. water bath. Extracts were briefly chilled on ice before centrifugation at 4400×g for 15 min at 4° C. The supernatant was filtered by centrifugation (0.2 μm nylon centrifugal filter; Costar, Corning) at 21000×g for 5 min at room temperature. 10 μL of the filtrate was transferred to an autosampler vial and diluted 100-fold with 990 μL of 10.1 mM perfluorohexanoic acid (PFHA) spiked with […] of internal standard. Thus the final concentration of internal standard was ˜2 μM.
An amino acid standard series was prepared from a premade mixture (MilliporeSigma, AAS18) that contained equal molar amounts of cystine and all 20 proteinogenic amino acids save for tryptophan, asparagine, glutamine, and cysteine. An equal molar mixture of tryptophan, asparagine, glutamine, and cysteine was subsequently prepared. To avoid dilution errors or artefacts from differing buffers, these amino acid stocks were aliquoted and desiccated such that a five-part standard series ranging from 250 μM to 25 nM would be produced upon resuscitation with 10 μL of spiked extraction buffer and 990 μL spiked PFHA solution.
Samples and amino acids were held overnight at −20° C. before analysis. Amino acids were analyzed with a Xevo TQ-S Micro UPLC (H-Class)-MS/MS (Waters) at the Michigan State University Mass Spectrometry and Metabolomics Core. Conditions were as follows. HPLC column: Acquirt UPLC HSS T3, 2.1×100 mm, 1.7 μm particle size (Waters), with a 0.2 μm pre-column filter (Waters). Mobile phase: A) 10 mM PFHA in water, B) acetonitrile. LC gradient: linear gradient, slope setting=6, flow rate=0.3 mL·min^−1, step 1) 0 min, 100% A, 0% B, 2) 1 min, 100% A, 0% B, 3) 8 min, 35% A, 65% B, 4) 8.01 min, 10% A, 90% B, 5) 9 min, 10% A, 90% B, 6) 9.01 min, 100% A, 0% B, 7) 13 min, 100% A, 0% B. Column temp: 40° C. Autosampler temp: 10° C. Injection volume: 10 μL. Tune parameters: electrospray ionization, standard ESI probe, capillary voltage=+1.0 kV, source temp=120° C., desolvation temp=350° C., desolvation gas=800 L·hr^−1, cone gas=40 L·hr^−1. […]

banana pulp [3] = assay: Headspace volatile ester emissions of banana pulp sections treated with AHAS inhibitor; design: species or system Musa spp. AAA group, Cavendish subgroup, cv. Valery; key to 1-methylbutyl acetate emissions compared to control: —: Dash indicates no significant difference between treatments
Description: Banana fruit at an early stage of ripening were infiltrated with AHAS inhibitors by two means. The first method was used for the effects of sulfonylureas on volatile and amino acid content, whereas the second was used to investigate the recovery of sulfonylurea-treated fruits after precursor application.
as §1
Headspace volatiles from small tissue samples incubated in 22 mL vials were adsorbed for 30 s using a solid-phase micro extraction (SPME) fiber (65 μm PDMS-DVB; Supelco Analytical). The SPME fiber was then directly desorbed for 1 min in the injection port of a gas chromatograph (GC; HP-6890, Hewlett-Packard) coupled to a time-of-flight mass spectrometer (MS; Pegasus II, LECO). Whole fruits and banana slices were incubated for 20 min at room temperature (22° C.) in 1-L sealed Teflon jars before a 15-s, or 3-min adsorption and 1- or 2-min desorption. Adsorption times were adjusted to ensure instrument responses were in the linear range. All desorbed volatiles were cryofocused at the beginning of the column by immersing said region of the column in liquid nitrogen. After the desorption period, the run was initiated and the liquid nitrogen removed.
The conditions of the system were as follows. Injection port: 200° C., splitless, ultra-purified helium (99.999%) carrier gas, front inlet flow 1.5 mL·min^−1 constant, 10 mL·min^−1 purge flow, 11.5 mL·min^−1 total flow. Oven: initial temperature 40° C. for 0 min, ramped by 43° C.·min^−1 to 185° C. for 0 min. Column: HP-5 MS, 30 m×0.25 mm i.d., 0.25 μm film thickness (Agilent). Transfer line temperature 225° C. MS: Electron ionization (−70 eV), ion source temperature 200° C., solvent delay 50 sec, m/z range 29 to 400, detector voltage 1500 V, data collection rate 20 Hz.
Compounds were identified by comparison of the retention time and mass spectrum against authenticated reference standards and spectra (National Institute of Standards and Technology Mass Spectral Search Program Version 2.0, 2001). Volatiles were quantified by calibration with a standard of 59 authenticated, high-purity compounds (Sigma-Aldrich Co. and Fluka Chemical) including the target compounds. The standard was made by placing 0.5 μL of an equal-part mixture of the neat compounds onto a disc of filter paper before quickly placing the filter paper into a 4-L sealed flask fitted with a Mininert valve (for SPME fiber access, and allowed to vaporize for at least 6 hours. SPME adsorption and desorption times of the standard matched that of the samples quantified (e.g., 30-s adsorption, 1 min desorption when quantifying samples in 22-mL vials).
Statistical analysis was performed using SciPy (v1.6.2), RStudio (v2023.03.0+386), or Microsoft Excel (v16.89). […]

[4] = Valery banana pulp sections, 0.5 mM

CC1=CC1 [MCP, 1-methylcyclopropene]
respiration rate of MCP-treated fruit relative to untreated fruit [1]: 88.7%

COC(=O)c1c(Cl)nn(C)c1S(=O)(=O)NC(=O)Nc1nc(OC)cc(OC)n1 [halosulfuron-methyl, methyl 3-chloro-5-(4,6-dimethoxypyrimidin-2-ylcarbamoylsulfamoyl)-1-methylpyrazole-4-carboxylate]
isoleucine levels (banana pulp [2]; Valery banana fruit): unchanged
total content of free amino acids (banana pulp [2]; Valery banana fruit): increased
valine and leucine less abundant (banana pulp [2]; Valery banana fruit): 57.6%
free alanine content compared to control (banana pulp [2]; [4]): 407.4 ± 66.8%
free arginine content compared to control (banana pulp [2]; [4]): —
free asparagine content compared to control (banana pulp [2]; [4]): —
free aspartate content compared to control (banana pulp [2]; [4]): 332.7 ± 30.1%
free cysteine content compared to control (banana pulp [2]; [4]): 264.2 ± 46.6%
free glutamate content compared to control (banana pulp [2]; [4]): 217.4 ± 23.9%
free glutamine content compared to control (banana pulp [2]; [4]): —
free glycine content compared to control (banana pulp [2]; [4]): 173.1 ± 39.9%
free histidine content compared to control (banana pulp [2]; [4]): —
free isoleucine content compared to control (banana pulp [2]; [4]): —
free leucine content compared to control (banana pulp [2]; [4]): 65.8 ± 6.1%
free lysine content compared to control (banana pulp [2]; [4]): —
free methionine content compared to control (banana pulp [2]; [4]): —
free phenylalanine content compared to control (banana pulp [2]; [4]): —
free proline content compared to control (banana pulp [2]; [4]): 188.4 ± 18.7%
free serine content compared to control (banana pulp [2]; [4]): 186.2 ± 14.5%
free threonine content compared to control (banana pulp [2]; [4]): —
free tryptophan content compared to control (banana pulp [2]; [4]): —
free tyrosine content compared to control (banana pulp [2]; [4]): 142.3 ± 25.1%
free valine content compared to control (banana pulp [2]; [4]): 14.3 ± 0.8%
total free amino acid content compared to control (banana pulp [2]; [4]): 150.6 ± 13.7%
ethyl acetate, butyl acetate, and butyl butanoate collectively reduced (banana pulp [3]; Valery banana fruit): 95.0%
reduction in the total content of iso-branched-chain esters in the headspace (banana pulp [3]; Valery banana fruit): 90.3%
sec-branched esters or related volatiles (2-pentanone, 2-pentanol, 1-methylbutyl acetate, 1-methylbutyl butanoate) affected by inhibitor treatment (banana pulp [3]; Valery banana fruit): None
1-methylbutyl acetate emissions compared to control (banana pulp [3]; [4]): —
2-methylpropyl acetate (val) emissions compared to control (banana pulp [3]; [4]): 2.0 ± 0.7%
3-methylbutyl acetate (leu) emissions compared to control (banana pulp [3]; [4]): 10.4 ± 5.4%
butyl acetate emissions compared to control (banana pulp [3]; [4]): 3.9 ± 2.7%
ethyl acetate emissions compared to control (banana pulp [3]; [4]): 3.9 ± 2.4%
sum of anteiso- and iso-branched-chain esters emissions compared to control (banana pulp [3]; [4]): 9.7 ± 3.6%
